Experiments:
F508del [1] = molecular target: T1, F508del (Homo sapiens, UniProt P13569, DEL508-508); assay: Protocol 1: membrane potential optical assay (FLIPR III, voltage sensing dye), identification of potentiator compounds; type: cell-based; conditions: Table 3, compounds of Table 1
T1 construct: expressed in transfected cells
Text: Membrane Potential Optical Methods for Assaying F508del Modulation Properties of Compounds
The assay utilizes fluorescent voltage sensing dyes to measure changes in membrane potential using a fluorescent plate reader (e.g., FLIPR III, Molecular Devices, Inc.) as a readout for increase in functional F508del in NIH 3T3 cells. The driving force for the response is the creation of a chloride ion gradient in conjunction with channel activation by a single liquid addition step after the cells have previously been treated with compounds and subsequently loaded with a voltage sensing dye.
Identification of Potentiator Compounds
To identify potentiators of F508del, a double-addition HTS assay format was developed. This HTS assay utilizes fluorescent voltage sensing dyes to measure changes in membrane potential on the FLIPR III as a measurement for increase in gating (conductance) of F508del in temperature-corrected F508del NIH 3T3 cells. The driving force for the response is a Cl^− ion gradient in conjunction with channel activation with forskolin in a single liquid addition step using a fluorescent plate reader such as FLIPR III after the cells have previously been treated with potentiator compounds (or DMSO vehicle control) and subsequently loaded with a redistribution dye.
Bath Solution #1: (in mM) NaCl 160, KCl 4.5, CaCl2 2, MgCl2 1, HEPES 10, pH 7.4 with NaOH.
Chloride-free bath solution: Chloride salts in Bath Solution #1 (above) are substituted with gluconate salts.
NIH3T3 mouse fibroblasts stably expressing F508del are used for optical measurements of membrane potential. The cells are maintained at 37° C. in 5% CO2 and 90% humidity in Dulbecco's modified Eagle's medium supplemented with 2 mM glutamine, 10% fetal bovine serum, 1×NEAA, β-ME, 1× pen/strep, and 25 mM HEPES in 175 cm^2 culture flasks. For all optical assays, the cells were seeded at ˜20,000/well in 384-well matrigel-coated plates and cultured for 2 hrs at 37° C. before culturing at 27° C. for 24 hrs. for the potentiator assay. For the correction assays, the cells are cultured at 27° C. or 37° C. with and without compounds for 16-24 hours.

F508del [2] = molecular target: T1, F508del; assay: Protocol 2: FRET membrane potential optical assay (VIPR), identification of correction compounds; type: cell-based
Procedure, shortened: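 NIH3T3 mouse fibroblasts stably expressing F508del were treated with test compound for 16 hrs at 37° C. in serum-free medium; 27° C. incubation served as positive control. F508del was activated with 10 μM forskolin plus 20 μM genistein in Cl^−-free medium, and Cl^− efflux-driven depolarization was read by DiSBAC2(3)/CC2-DMPE FRET.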

[3] = Table 3, compounds of Table 1 as modulators of CFTR activity, protocol not stated
[4] = F508del CFTR modulator activity, compounds of Table 1, read-out: EC30

T1 sequence (P13569 with tags, fused parts or gaps DEL508-508): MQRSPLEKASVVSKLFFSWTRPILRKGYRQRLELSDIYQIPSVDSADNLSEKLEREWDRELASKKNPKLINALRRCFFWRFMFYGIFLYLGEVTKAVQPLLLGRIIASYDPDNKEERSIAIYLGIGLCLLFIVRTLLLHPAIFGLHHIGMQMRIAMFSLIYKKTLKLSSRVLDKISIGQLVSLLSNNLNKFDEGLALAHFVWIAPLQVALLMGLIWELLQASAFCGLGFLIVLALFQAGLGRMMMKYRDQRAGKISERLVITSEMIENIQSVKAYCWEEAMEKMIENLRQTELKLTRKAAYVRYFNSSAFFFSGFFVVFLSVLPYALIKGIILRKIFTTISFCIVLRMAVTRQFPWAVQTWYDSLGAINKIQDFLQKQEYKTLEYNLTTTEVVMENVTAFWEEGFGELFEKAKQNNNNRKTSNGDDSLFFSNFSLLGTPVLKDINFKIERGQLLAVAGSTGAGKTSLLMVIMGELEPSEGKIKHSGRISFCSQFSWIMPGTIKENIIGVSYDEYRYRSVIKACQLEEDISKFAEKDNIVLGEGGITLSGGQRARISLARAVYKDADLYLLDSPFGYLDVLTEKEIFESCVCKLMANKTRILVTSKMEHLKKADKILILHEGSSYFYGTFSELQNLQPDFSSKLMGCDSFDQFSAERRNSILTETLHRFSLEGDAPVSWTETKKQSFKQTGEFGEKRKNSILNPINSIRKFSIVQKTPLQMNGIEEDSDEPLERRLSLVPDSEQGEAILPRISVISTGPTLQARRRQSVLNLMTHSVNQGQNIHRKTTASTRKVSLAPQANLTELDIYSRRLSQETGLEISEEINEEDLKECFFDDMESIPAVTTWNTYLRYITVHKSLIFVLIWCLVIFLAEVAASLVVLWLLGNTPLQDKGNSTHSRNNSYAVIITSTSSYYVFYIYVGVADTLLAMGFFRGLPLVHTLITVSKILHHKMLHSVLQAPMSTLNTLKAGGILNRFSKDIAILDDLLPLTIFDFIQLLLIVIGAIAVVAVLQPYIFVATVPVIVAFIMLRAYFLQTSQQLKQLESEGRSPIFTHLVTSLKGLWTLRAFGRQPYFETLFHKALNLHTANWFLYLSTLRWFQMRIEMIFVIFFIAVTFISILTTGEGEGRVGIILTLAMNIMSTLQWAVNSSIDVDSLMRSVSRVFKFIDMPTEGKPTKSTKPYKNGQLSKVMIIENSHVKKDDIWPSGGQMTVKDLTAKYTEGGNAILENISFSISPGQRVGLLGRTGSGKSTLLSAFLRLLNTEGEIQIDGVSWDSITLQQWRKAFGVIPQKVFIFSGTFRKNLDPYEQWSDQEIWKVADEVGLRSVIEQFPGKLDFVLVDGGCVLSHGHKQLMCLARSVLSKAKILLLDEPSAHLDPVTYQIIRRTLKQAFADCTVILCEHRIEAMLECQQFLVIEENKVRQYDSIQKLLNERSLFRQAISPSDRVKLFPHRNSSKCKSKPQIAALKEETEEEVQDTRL

Row | EC30 (F508del [1]) | SMILES | further results
1 | +++ (“+++” means <3 uM) | Cc1cc(C(=O)NS(=O)(=O)c2cccc(N)n2)c(N2CC(C)CC2(C)C)nc1-c1ccc(OC(C)C)nc1 (stereo not shown) [Compound 995, N-[(6-amino-2-pyridyl)sulfonyl]-6-(6-isopropoxy-3-pyridyl)-5-methyl-2-(2,2,4-trimethylpyrrolidin-1-yl)pyridine-3-carboxamide] | –
2 | ++ (“++” means between 3 uM and 10 uM) | CC1CN(c2ncc(-c3cccc(C#N)c3)cc2C(=O)NS(=O)(=O)c2cccc(N)n2)C(C)(C)C1 (stereo not shown) [Compound 1849, N-[(6-amino-2-pyridyl)sulfonyl]-5-(3-cyanophenyl)-2-(2,2,4-trimethylpyrrolidin-1-yl)pyridine-3-carboxamide] | –
3 | +++ (“+++” means <3 uM) | Cc1cc(C)c(Oc2nc(C3CC4CCC3(C)C4(C)C)ccc2C(=O)NS(=O)(=O)c2cccc(N)n2)c(C)c1 (stereo not shown) [Compound 1650, N-[(6-amino-2-pyridyl)sulfonyl]-6-(1,7,7-trimethylnorbornan-2-yl)-2-(2,4,6-trimethylphenoxy)pyridine-3-carboxamide] | –
4 | ++ (“++” means between 3 uM and 10 uM) | CC(=O)N1CC=C(c2ccc(C(=O)NS(=O)(=O)c3cccc(N)n3)c(Oc3c(C)cc(C)cc3C)n2)CC1 [Compound 1649, 6-(1-acetyl-3,6-dihydro-2H-pyridin-4-yl)-N-[(6-amino-2-pyridyl)sulfonyl]-2-(2,4,6-trimethylphenoxy)pyridine-3-carboxamide] | –
5 | +++ (“+++” means <3 uM) | CC1CN(c2nc(-c3ccc(OC(C)C)nc3)ccc2C(=O)NS(=O)(=O)c2cccc(N)n2)C(C)(C)C1 (stereo not shown) [Compound 1247, N-[(6-amino-2-pyridyl)sulfonyl]-6-(6-isopropoxy-3-pyridyl)-2-(2,2,4-trimethylpyrrolidin-1-yl)pyridine-3-carboxamide] | –
6 | +++ (“+++” means <3 uM) | CC(C)Oc1ccc(-c2ccc(C(=O)NS(=O)(=O)c3cccc(N)n3)c(N3CCCC34CCC4)n2)cn1 [Compound 987, N-[(6-amino-2-pyridyl)sulfonyl]-2-(8-azaspiro[3.4]octan-8-yl)-6-(6-isopropoxy-3-pyridyl)pyridine-3-carboxamide] | –
7 | +++ (“+++” means <3 uM) | Cc1cc(C)c(Oc2nc(C3=CC(C)(C)OCC3)ccc2C(=O)NS(=O)(=O)c2cccc(N)n2)c(C)c1 [Compound 1460, N-[(6-amino-2-pyridyl)sulfonyl]-6-(6,6-dimethyl-2,3-dihydropyran-4-yl)-2-(2,4,6-trimethylphenoxy)pyridine-3-carboxamide] | –
8 | +++ (“+++” means <3 uM) | CC1CN(c2ncccc2C(=O)NS(=O)(=O)c2cccc(Nc3ccccc3Cl)n2)C(C)(C)C1 (stereo not shown) [Compound 1872, N—[[6-(2-chloroanilino)-2-pyridyl]sulfonyl]-2-(2,2,4-trimethylpyrrolidin-1-yl)pyridine-3-carboxamide] | –
9 | ++ (“++” means between 3 uM and 10 uM) | Cc1cccc(C)c1Oc1nc(-c2cc(F)cc(OCC(C)(C)O)c2)ccc1C(=O)NS(=O)(=O)c1cccc(N)n1 [Compound 1890, N-[(6-amino-2-pyridyl)sulfonyl]-2-(2,6-dimethylphenoxy)-6-[3-fluoro-5-(2-hydroxy-2-methyl-propoxy)phenyl]pyridine-3-carboxamide] | –
10 | +++ (“+++” means <3 uM) | Cc1cc(C)c(Oc2nc(C(C)(C)C)ccc2C(=O)N=S(N)(=O)c2cccc(N)n2)c(C)c1 (stereo not shown) [Compound 1481, N-[amino-(6-amino-2-pyridyl)-oxo-$1^6-sulfanylidene]-6-tert-butyl-2-(2,4,6-trimethylphenoxy)pyridine-3-carboxamide] | –
11 | – | CC(C)COc1cc(F)cc(-c2ccc(C(=O)NS(=O)(=O)c3cccc(=O)[nH]3)c(N3CCC(C)(C)CC3)n2)c1 [Compound 775, 2-(4,4-dimethyl-1-piperidyl)-6-(3-fluoro-5-isobutoxy-phenyl)-N-[(6-oxo-1H-pyridin-2-yl)sulfonyl]pyridine-3-carboxamide] | EC30 (F508del [2]; [3]): +++ (“+++” means <3 uM)
12 | – | CC(=O)c1ccc(Oc2cccc(S(=O)(=O)NC(=O)c3cccnc3N3CC(C)CC3(C)C)n2)cc1 (stereo not shown) [Compound 2730] | EC30 (F508del [2]; [4]): 3 to 10 µM
13 | – | Cc1cc(C)c(Oc2nc(-c3ccc(C(F)(F)F)nc3)ccc2C(=O)NS(=O)(=O)c2cccc(N)n2)c(C)c1 [Compound 132, N-[(6-amino-2-pyridyl)sulfonyl]-6-[6-(trifluoromethyl)-3-pyridyl]-2-(2,4,6-trimethylphenoxy)pyridine-3-carboxamide] | EC30 (F508del [2]; [3]): +++ (“+++” means <3 uM)
14 | – | CNc1cccc(S(=O)(=O)NC(=O)c2ccc(C(C)(C)C)nc2Oc2c(C)cc(C)cc2C)c1 [Compound 289, 6-tert-butyl-N-[3-(methylamino)phenyl]sulfonyl-2-(2,4,6-trimethylphenoxy)pyridine-3-carboxamide] | EC30 (F508del [2]; [3]): +++ (“+++” means <3 uM)
15 | – | Cc1cc(C)c(Oc2nc(-c3cnn(C)c3C)ccc2C(=O)NS(=O)(=O)c2cccc(N)n2)c(C)c1 [Compound 584, N-[(6-amino-2-pyridyl)sulfonyl]-6-(1,5-dimethylpyrazol-4-yl)-2-(2,4,6-trimethylphenoxy)pyridine-3-carboxamide] | EC30 (F508del [2]; [3]): ++ (“++” means between 3 uM and 10 uM)
16 | – | CC(C)COc1cc(F)cc(-c2ccc(C(=O)NS(=O)(=O)N3CC4CCC(C3)N4)c(N3C[C@@H](C)CC3(C)C)n2)c1 [Compound 2237, N-(3,8-diazabicyclo[3.2.1]octan-3-ylsulfonyl)-6-(3-fluoro-5-isobutoxy-phenyl)-2-[(4S)-2,2,4-trimethylpyrrolidin-1-yl]pyridine-3-carboxamide] | EC30 (F508del [2]; [4]): < 3 µM
17 | – | CCCC(C)(C)Oc1cccc(S(=O)(=O)NC(=O)c2cccnc2N2CC(C)CC2(C)C)n1 (stereo not shown) [Compound 2130, N—[[6-(1,1-dimethylbutoxy)-2-pyridyl]sulfonyl]-2-(2,2,4-trimethylpyrrolidin-1-yl)pyridine-3-carboxamide] | EC30 (F508del [2]; [4]): < 3 µM
18 | – | CC(C)COc1cccc(-c2ccc(C(=O)NS(=O)(=O)c3ccc[nH]c3=O)c(N3C[C@@H](C)CC3(C)C)n2)c1 [Compound 2267, 6-(3-isobutoxyphenyl)-N-[(2-oxo-1H-pyridin-3-yl)sulfonyl]-2-[(4S)-2,2,4-trimethylpyrrolidin-1-yl]pyridine-3-carboxamide] | EC30 (F508del [2]; [4]): < 3 µM
19 | – | Cc1cc(C)c(CN2Cc3ccccc3CC2C(=O)NS(=O)(=O)c2cccc(N)c2)c(C)c1 (stereo not shown) [Compound 213, N-(3-aminophenyl)sulfonyl-2-[(2,4,6-trimethylphenyl)methyl]-3,4-dihydro-1H-isoquinoline-3-carboxamide] | EC30 (F508del [2]; [3]): +++ (“+++” means <3 uM)
20 | – | Cc1ccc(-c2ccc(C(=O)NS(=O)(=O)c3ccc[nH]c3=O)c(N3C[C@@H](C)CC3(C)C)n2)cc1C [Compound 2154, 6-(3,4-dimethylphenyl)-N-[(2-oxo-1H-pyridin-3-yl)sulfonyl]-2-[(4S)-2,2,4-trimethylpyrrolidin-1-yl]pyridine-3-carboxamide] | EC30 (F508del [2]; [4]): < 3 µM

Row | SMILES | EC30 (F508del [1]) | further results
21 | CC(C)COc1cc(F)cc(-c2ccc(C(=O)NS(=O)(=O)c3cccc(N)n3)c(OCC3CCCCC3)n2)c1 [Compound 1395, N-[(6-amino-2-pyridyl)sulfonyl]-2-(cyclohexylmethoxy)-6-(3-fluoro-5-isobutoxy-phenyl)pyridine-3-carboxamide] | +++ (“+++” means <3 uM) | –
22 | CC(C)COc1ccc(F)c(-c2ccc(C(=O)NS(=O)(=O)c3cccc(N)n3)c(N3CCC(C)CC3)n2)c1 [Compound 1109, N-[(6-amino-2-pyridyl)sulfonyl]-6-(2-fluoro-5-isobutoxy-phenyl)-2-(4-methyl-1-piperidyl)pyridine-3-carboxamide] | ++ (“++” means between 3 uM and 10 uM) | –
